Assay results from patent US20080113946A1, “N-aryl-5,7-dihydrofuro[3,4-d]pyrimidin-4-amines and analogs as activators of caspases and inducers of apoptosis and the use thereof” (Cyntovia, Inc., priority 2006, published 2008).

test system: SNU398 cells; test: Inhibition of cell proliferation (GI50, CellTiter-Glo) in SNU398 cells; format: cell-based; details: Homo sapiens, SNU-398, 48 h, read-out: GI50 in Cancer Cells SNU398
Experimental: (§1) T-47D, MX-1, SNU398 and HCT116 cells were grown and harvested as in Example 33. An aliquot of 90 μL of cells (4.4×10^4 cells/mL) was added to a well of a 96-well microtiter plate containing 5 μL of a 10% DMSO in RPMI-1640 media solution containing 10 nM to 100 μM of 5,7-dihydro-N-(3,5-dimethoxyphenyl)-2-(methylthio)furo[3,4-d]pyrimidin-4-amine (1 nM to 10 μM final) or related compounds. An aliquot of […] of cells was added to a well of a 96-well microtiter plate containing 5 μL of a 10% DMSO in RPMI-1640 media solution without compound as the control sample for maximal cell proliferation (LMax). The samples were mixed by agitation and then incubated at 37° C. for 48 h in a 5% CO2-95% humidity incubator. After incubation, the samples were removed from the incubator and 25 μL of CellTiter-Glo™ reagent (Promega) was added. The samples were mixed by agitation and incubated at room temperature for 10-15 min. Plates were then read using a luminescent plate reader (Model SPECTRAfluor Plus, Tecan) to give Ltest values.
(§2) Baseline for GI50 (dose for 50% inhibition of cell proliferation) of initial cell numbers was determined by adding an aliquot of 45 μL of cells or 45 μL of media, respectively, to wells of a 96-well microtiter plate containing 5 μL of a 10% DMSO in RPMI-1640 media solution. The samples were mixed by agitation and then incubated at 37° C. for 0.5 h in a 5% CO2-95% humidity incubator. After incubation, the samples were removed from the incubator and 25 μL of CellTiter-Glo™ reagent (Promega) was added. The samples were mixed by agitation and incubated at 37° C. for 10-15 min at room temperature in a 5% CO2-95% humidity incubator. Fluorescence was read as above, (LStart) defining luminescence for initial cell number used as baseline in GI50 determinations.
(§3) GI50 (dose for 50% inhibition of cell proliferation) is the concentration where [(LTest−LStart)/(LMax−LStart)]=0.5.

SMILES	GI50 [nM]
COc1cc(Nc2nc(SC)nc3c2COC3)cc(OC)c1 [Example 7, 5,7-Dihydro-N-(3,5-dimethoxyphenyl)-2-(methylthio)furo[3,4-d]pyrimidin-4-amine]	3740
COc1ccc(OC)c(Nc2ncnc3c2CCC3)c1 [Example 25, 6,7-Dihydro-N-(2,5-dimethoxyphenyl)-5H-cyclopenta[d]pyrimidin-4-amine]	> 10000
COc1cc(Nc2ncnc3c2CCC3)cc(OC)c1 [Example 24, 6,7-Dihydro-N-(3,5-dimethoxyphenyl)-5H-cyclopenta[d]pyrimidin-4-amine]	> 10000

test system: T-47D cells; test: Inhibition of cell proliferation (GI50, CellTiter-Glo) in T-47D cells; format: cell-based; details: Homo sapiens, T47D, 48 h, read-out: GI50 in Cancer Cells T47D
Experimental: as §1, §2, §3

SMILES	GI50 [nM]
COc1cc(Nc2nc(SC)nc3c2COC3)cc(OC)c1 [Example 7, 5,7-Dihydro-N-(3,5-dimethoxyphenyl)-2-(methylthio)furo[3,4-d]pyrimidin-4-amine]	183
COc1ccc(OC)c(Nc2ncnc3c2CCC3)c1 [Example 25, 6,7-Dihydro-N-(2,5-dimethoxyphenyl)-5H-cyclopenta[d]pyrimidin-4-amine]	1000
COc1cc(Nc2ncnc3c2CCC3)cc(OC)c1 [Example 24, 6,7-Dihydro-N-(3,5-dimethoxyphenyl)-5H-cyclopenta[d]pyrimidin-4-amine]	5000

test system: human hepatocellular carcinoma cell line SNU398; test: Caspase cascade activation (Ac-DEVD-R110 fluorogenic substrate) in SNU398 cells; format: cell-based; details: SNU-398, 24 h assay (Table II), read-out: Caspase Activation Potency EC50 (24 h) SNU398
Experimental: (§4) Human breast cancer cell line T-47D, human hepatocellular carcinoma cell line SNU398 and human colon carcinoma cell line HCT116 were grown according to media component mixtures designated by American Type Culture Collection+10% FCS (Invitrogen Corporation), in a 5% CO2-95% humidity incubator at 37° C. T-47D and H1299 cells were maintained at a cell density between 50 and 80% confluency at a cell density of 0.1 to 0.6×10^6 cells/mL. Cells were harvested at 600×g and resuspended at 0.65×10^6 cells/mL into appropriate media+10% FCS. An aliquot of 22.5 μL of cells was added to a well of a 384-well microtiter plate containing 2.5 μL of a 10% DMSO in RPMI-1640 media solution containing 0.16 to 100 μM of 5,7-dihydro-N-(3,5-dimethoxyphenyl)-2-(methylthio)furo[3,4-d]pyrimidin-4-amine or other test compound (0.016 to 10 μM final). An aliquot of 22.5 μL of cells was added to a well of a 384-well microtiter plate containing 2.5 μL of a 10% DMSO in RPMI-1640 media solution without test compound as the control sample. The samples were mixed by agitation and then incubated at 37° C. for 24 or 48 h in a 5% CO2-95% humidity incubator. After incubation, the samples were removed from the incubator and 25 μL of a solution containing 14 μM of N-(Ac-DEVD)-N′-ethoxycarbonyl-R110 (SEQ ID No.:1) fluorogenic substrate (Cytovia, Inc.; WO99/18856), 20% sucrose (Sigma), 20 mM DTT (Sigma), 200 mM NaCl (Sigma), 40 mM Na PIPES buffer pH 7.2 (Sigma), and 500 µg/mL lysolecithin (Calbiochem) was added. The samples were mixed by agitation and incubated at room temperature. Using a fluorescent plate reader (Model SPECTRAfluor Plus, Tecan), an initial reading (T=0) was made approximately 1-2 min after addition of the substrate solution, employing excitation at 485 nm and emission at 530 nm, to determine the background fluorescence of the control sample. After the 3 h incubation, the samples were read for fluorescence as above (T=3 h).
(§5) The Relative Fluorescence Unit values (RFU) were used to calculate the sample readings as follows: RFU(T=3h)−Control RFU(T=0)=Net RFU(T=3h)
(§6) The activity of caspase cascade activation was determined by the ratio of the net RFU value for 5,7-dihydro-N-(3,5-dimethoxyphenyl)-2-(methylthio)furo[3,4-d]pyrimidin-4-amino or other test compound to that of control samples. The EC50 (nM) was determined by a sigmoidal dose-response calculation (Prism 3.0, GraphPad Software Inc.).

SMILES	EC50 [nM]
COc1cc(Nc2nc(SC)nc3c2COC3)cc(OC)c1 [Example 7, 5,7-Dihydro-N-(3,5-dimethoxyphenyl)-2-(methylthio)furo[3,4-d]pyrimidin-4-amine]	> 10000
COc1ccc(OC)c(Nc2ncnc3c2CCC3)c1 [Example 25, 6,7-Dihydro-N-(2,5-dimethoxyphenyl)-5H-cyclopenta[d]pyrimidin-4-amine]	> 10000

same assay, conditions: SNU-398, incubated 24 or 48 h (Table I), 0.016 to 10 μM final, read-out: Caspase Activation Potency EC50 SNU398

SMILES	EC50 [nM]
COc1cc(Nc2nc(SC)nc3c2COC3)cc(OC)c1 [Example 7, 5,7-Dihydro-N-(3,5-dimethoxyphenyl)-2-(methylthio)furo[3,4-d]pyrimidin-4-amine]	4710
COc1ccc(OC)c(Nc2ncnc3c2CCC3)c1 [Example 25, 6,7-Dihydro-N-(2,5-dimethoxyphenyl)-5H-cyclopenta[d]pyrimidin-4-amine]	> 10000
COc1cc(Nc2ncnc3c2CCC3)cc(OC)c1 [Example 24, 6,7-Dihydro-N-(3,5-dimethoxyphenyl)-5H-cyclopenta[d]pyrimidin-4-amine]	> 10000

test system: human colon carcinoma cell line HCT116; test: Caspase cascade activation (Ac-DEVD-R110 fluorogenic substrate) in HCT116 cells; format: cell-based; details: HCT-116, incubated 24 or 48 h (Table I), 0.016 to 10 μM final, read-out: Caspase Activation Potency EC50 HCT116
Experimental: as §4, §5, §6

SMILES	EC50 [nM]
COc1cc(Nc2nc(SC)nc3c2COC3)cc(OC)c1 [Example 7, 5,7-Dihydro-N-(3,5-dimethoxyphenyl)-2-(methylthio)furo[3,4-d]pyrimidin-4-amine]	5500
COc1ccc(OC)c(Nc2ncnc3c2CCC3)c1 [Example 25, 6,7-Dihydro-N-(2,5-dimethoxyphenyl)-5H-cyclopenta[d]pyrimidin-4-amine]	> 10000
COc1cc(Nc2ncnc3c2CCC3)cc(OC)c1 [Example 24, 6,7-Dihydro-N-(3,5-dimethoxyphenyl)-5H-cyclopenta[d]pyrimidin-4-amine]	> 10000

test system: human lung cancer cell line H1299; test: Caspase cascade activation (24 h assay) in H1299 cells; format: cell-based; details: NCI-H1299, 24 h assay (Table II), read-out: Caspase Activation Potency EC50 (24 h) H1299
Experimental: as §4, with “After incubation, the samples were removed from the incubator and 25 μL of a solution containing 14 μM of N-(Ac-DEVD)-N′-ethoxycarbonyl-R110 (SEQ ID No.:1) fluorogenic substrate (Cytovia, Inc.; WO99/18856), 20% sucrose (Sigma), 20 mM DTT (Sigma), 200 mM NaCl (Sigma), 40 mM Na PIPES buffer pH 7.2 (Sigma), and 500 µg/mL lysolecithin (Calbiochem) was added. The samples were mixed by agitation and incubated at room temperature.” left out
as §5
as §6, with “Inc.). […]” for “Inc.).”

SMILES	EC50 [nM]
COc1ccc(OC)c(Nc2ncnc3c2CCC3)c1 [Example 25, 6,7-Dihydro-N-(2,5-dimethoxyphenyl)-5H-cyclopenta[d]pyrimidin-4-amine]	> 10000

test system: breast cancer cell line SKBR3; test: Caspase cascade activation (24 h assay) in SKBR3 cells; format: cell-based; details: Homo sapiens, SK-BR-3, 24 h assay (Table II), read-out: Caspase Activation Potency EC50 (24 h) SKBR3
Experimental: [The procedure below names another cell line; the source lists this cell line under the same test.] Human breast cancer cell line T-47D, human hepatocellular carcinoma cell line SNU398 and human colon carcinoma cell line HCT116 were grown according to media component mixtures designated by American Type Culture Collection+10% FCS (Invitrogen Corporation), in a 5% CO2-95% humidity incubator at 37° C. T-47D and H1299 cells were maintained at a cell density between 50 and 80% confluency at a cell density of 0.1 to 0.6×10^6 cells/mL. Cells were harvested at 600×g and resuspended at 0.65×10^6 cells/mL into appropriate media+10% FCS. […] Using a fluorescent plate reader (Model SPECTRAfluor Plus, Tecan), an initial reading (T=0) was made approximately 1-2 min after addition of the substrate solution, employing excitation at 485 nm and emission at 530 nm, to determine the background fluorescence of the control sample. After the 3 h incubation, the samples were read for fluorescence as above (T=3 h).
as §5
as §6, with “Inc.). […]” for “Inc.).”

SMILES	EC50 [nM]
COc1cc(Nc2nc(SC)nc3c2COC3)cc(OC)c1 [Example 7, 5,7-Dihydro-N-(3,5-dimethoxyphenyl)-2-(methylthio)furo[3,4-d]pyrimidin-4-amine]	118
COc1ccc(OC)c(Nc2ncnc3c2CCC3)c1 [Example 25, 6,7-Dihydro-N-(2,5-dimethoxyphenyl)-5H-cyclopenta[d]pyrimidin-4-amine]	355

test system: MX-1 cells; test: Inhibition of cell proliferation (GI50, CellTiter-Glo) in MX-1 cells; format: cell-based; details: Homo sapiens, MX1, 48 h, read-out: GI50 in Cancer Cells MX1
Experimental: as §1, §2, §3

SMILES	GI50 [nM]
COc1cc(Nc2nc(SC)nc3c2COC3)cc(OC)c1 [Example 7, 5,7-Dihydro-N-(3,5-dimethoxyphenyl)-2-(methylthio)furo[3,4-d]pyrimidin-4-amine]	27
COc1ccc(OC)c(Nc2ncnc3c2CCC3)c1 [Example 25, 6,7-Dihydro-N-(2,5-dimethoxyphenyl)-5H-cyclopenta[d]pyrimidin-4-amine]	890
COc1cc(Nc2ncnc3c2CCC3)cc(OC)c1 [Example 24, 6,7-Dihydro-N-(3,5-dimethoxyphenyl)-5H-cyclopenta[d]pyrimidin-4-amine]	5000

test system: HCT116 cells; test: Inhibition of cell proliferation (GI50, CellTiter-Glo) in HCT116 cells; format: cell-based; details: Homo sapiens, HCT-116, 48 h, read-out: GI50 in Cancer Cells HCT116
Experimental: as §1, §2, §3

SMILES	GI50 [nM]
COc1cc(Nc2nc(SC)nc3c2COC3)cc(OC)c1 [Example 7, 5,7-Dihydro-N-(3,5-dimethoxyphenyl)-2-(methylthio)furo[3,4-d]pyrimidin-4-amine]	3000
COc1ccc(OC)c(Nc2ncnc3c2CCC3)c1 [Example 25, 6,7-Dihydro-N-(2,5-dimethoxyphenyl)-5H-cyclopenta[d]pyrimidin-4-amine]	> 10000
COc1cc(Nc2ncnc3c2CCC3)cc(OC)c1 [Example 24, 6,7-Dihydro-N-(3,5-dimethoxyphenyl)-5H-cyclopenta[d]pyrimidin-4-amine]	> 10000

test system: Human breast cancer cell line T-47D; test: Caspase cascade activation (Ac-DEVD-R110 fluorogenic substrate) in T-47D cells; format: cell-based; details: T47D, 24 h assay (Table II), read-out: Caspase Activation Potency EC50 (24 h) T47D
Experimental: as §4, §5, §6

SMILES	EC50 [nM]
COc1cc(Nc2nc(SC)nc3c2COC3)cc(OC)c1 [Example 7, 5,7-Dihydro-N-(3,5-dimethoxyphenyl)-2-(methylthio)furo[3,4-d]pyrimidin-4-amine]	54
COc1ccc(OC)c(Nc2ncnc3c2CCC3)c1 [Example 25, 6,7-Dihydro-N-(2,5-dimethoxyphenyl)-5H-cyclopenta[d]pyrimidin-4-amine]	244

same assay, conditions: T47D, T-47D, incubated 24 or 48 h (Table I), 0.016 to 10 μM final, read-out: Caspase Activation Potency EC50 T-47D

SMILES	EC50 [nM]
COc1cc(Nc2nc(SC)nc3c2COC3)cc(OC)c1 [Example 7, 5,7-Dihydro-N-(3,5-dimethoxyphenyl)-2-(methylthio)furo[3,4-d]pyrimidin-4-amine]	61
COc1ccc(OC)c(Nc2ncnc3c2CCC3)c1 [Example 25, 6,7-Dihydro-N-(2,5-dimethoxyphenyl)-5H-cyclopenta[d]pyrimidin-4-amine]	260
COc1cc(Nc2ncnc3c2CCC3)cc(OC)c1 [Example 24, 6,7-Dihydro-N-(3,5-dimethoxyphenyl)-5H-cyclopenta[d]pyrimidin-4-amine]	987
